Data on 5 molecules can be found in patent US20080299041A1, “HETEROCYCLIC INDENE DERIVATIVES AND THEIR RADIOISOTOPE LABELED COMPOUNDS FOR IMAGING BETA-AMYLOID DEPOSITION” (SEOUL NATIONAL UNIVERSITY INDUSTRY FOUNDATION, priority 2007, published 2008).

One series concerns the target Aβ1-40 aggregates (Homo sapiens, UniProt P05067). Briefly: In vitro competitive binding assay with 3′-[^125I]I-BTA-1 as radioligand, Aβ1-40 aggregates. Conditions: Aβ aggregates 20 nM, 3 h at room temperature, pH 7.2. Here is the method:
(§1) Affinity to β-amyloid can be measured by incubation with β-amyloid precipitate and count the bound form after separation by centrifugation. Kd or Ki values are obtained either by saturation binding assay or competition assay.
(§2) Aβ1-40 or Aβ1-42 peptides were incubated in phosphate buffer (pH=7.2) overnight to prepare precipitates as reported in literatures, and then aliquoted and stored at −70[…]. (Klunk, W. E.; Wang, Y.; Huang, G-F.; Debnath, M. L.; Holt D. P.; Mathis, C. A. Uncharged thioflavin-T derivatives bind to amyloid-beta protein with high affinity and readily enter the brain. Life Sci. 2001, 69(13), […]; Zhuang, Z.-P.; Kung, M.-P.; Wilson, A.; Lee, C.-W.; Plossl, K.; Hou, C.; Holtzman, D. M.; Kung, H. F.; Structure-activity relationship of imidazo[1,2-a]pyridines as ligands for detecting β-amyloid plaques in the brain. J. Med. Chem. 2003; 46(2), 237-243)
(§3) The binding affinities of benzothiophene derivatives to Aβ aggregates were evaluated by competitive binding assays using 3′-[^125I]I-BTA-1 as a radioligand. […] Nonspecific binding was determined by incubation in the presence of 10 μM thioflavin-T. The reaction mixtures were filtered through Whatman GF/B glass filters and washed twice with 3 mL of 10% ethanol aliquots. Filters were counted using a Nat well counter. Ki values of the benzothiophene derivatives were then calculated from the results and represented on Table 1.

For a further series, the target named is Aβ1-42 aggregates (Homo sapiens, UniProt P05067). Nature of the series: In vitro competitive binding assay with 3′-[^125I]I-BTA-1 as radioligand, Aβ1-42 aggregates. The settings on record: Aβ aggregates 20 nM, 3 h at room temperature, pH 7.2. Here is the method:
as §1, §2, §3

The nature of series [1]: Biodistribution experiment in mice after tail vein injection of ^18F labeled compound. Type of series: in vivo, Male ICR mice. Here is the method: The penetration of BBB can be estimated by animal experiment. The radiolabeled compounds are intravenously injected to mice, and then the brains are obtained at 2 min, 30 min, and 60 min. The radioactivities of the brain are expressed as the percentage of injected dose per brain weight (gram).
FIG. 2. Biodistribution graph observed in each organ after injection of 2-(4′-[^18F]fluoromethyl)phenyl-1,3-benzothiazole through the mice tail veins. The mice were sacrificed at 2 min, 30 min and 60 min after injection, respectively, and then organs were taken out. The organs were weighed and their radioactivities were measured. The radioactivity distribution in each organ was calculated as the percentage of injected dose per organ weight (gram).
Male ICR mice (n=4/group, 29.9±1.6 g) were injected with 148 kBq/0.1 mL of 2-(4′-[^18F]fluoromethyl)phenyl-1,3-benzothiazole through the tail vein. These injected mice were sacrificed by decapitation 2, 30 and 60 min post-injection. Blood, muscle, lung, liver, spleen, stomach, intestine, brain, and bone were rapidly separated, weighed and counted using a NaI well counter. Results are expressed as percentages of the injected dose per gram of tissue (% ID/g), and represented in FIG. 2. Brain uptake at […] was 5.62±0.28% ID/g and ratio to 30 min was 3.75±0.97, which represent rapid uptake and wash out to and from normal brain.
A comparative mice biodistribution study using 2-(4′-O-(2′-[^18F]Fluoroethyl)hydroxyphenyl)benzothiophene and 2-(4′-O-(3′-[^18F]Fluoropropyl)hydroxyphenyl) benzothiophene was performed according to the same procedure with above Experiment 2.

Aβ1-42 aggregates, sequence (P05067 672-713 limits assumed): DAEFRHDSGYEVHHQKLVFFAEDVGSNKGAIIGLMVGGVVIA
Aβ1-40 aggregates, sequence (P05067 672-711 limits assumed): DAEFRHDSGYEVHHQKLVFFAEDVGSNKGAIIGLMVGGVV

With “2-(4′-fluoromethyl)phenyl-1,3-benzothiazole”, the values for the inhibition constant (Ki) on Aβ1-40 aggregates and at Aβ1-42 aggregates were 26.9 ± 5.04 nM and 28.1 ± 4.44 nM, respectively.

In series [1] (2 min post-injection), `[18F]CCOc1ccc(-c2cc3ccccc3s2)cc1` [2-(4′-O-(2′-[^18F]Fluoroethyl)hydroxyphenyl)benzothiophene] came in with a Blood uptake of 3.5 ± 0.2 % ID/g, a Bone uptake of 2.5 ± 0.2 % ID/g, a Brain uptake of 5.2 ± 0.4 % ID/g and a Fat uptake of 0.9 ± 0.3 % ID/g. In series [1] (2 min post-injection), this molecule yielded a Heart uptake of 8.8 ± 1.0 % ID/g, an Intestine uptake of 2.7 ± 0.2 % ID/g, a Kidney uptake of 11.8 ± 0.9 % ID/g and a Liver uptake of 9.3 ± 1.5 % ID/g. For the same molecule, in series [1] (2 min post-injection), the Lung uptake is listed as 9.3 ± 1.1 % ID/g, the Muscle uptake is 2.9 ± 0.3 % ID/g, the Spleen uptake is recorded as 4.4 ± 0.8 % ID/g and the Stomach uptake turned out to be 2.1 ± 0.7 % ID/g. In series [1] (30 min post-injection), this molecule returned a Blood uptake of 3.8 ± 0.4 % ID/g, a Bone uptake of 3.3 ± 0.2 % ID/g, a Brain uptake of 5.2 ± 0.5 % ID/g and a Fat uptake of 2.1 ± 1.0 % ID/g. In series [1] (30 min post-injection), this molecule had a Heart uptake of 3.2 ± 0.2 % ID/g, an Intestine uptake of 7.2 ± 0.6 % ID/g, a Kidney uptake of 4.1 ± 0.7 % ID/g and a Liver uptake of 3.9 ± 0.7 % ID/g. In series [1] (30 min post-injection), this molecule yielded a Lung uptake of 3.4 ± 0.6 % ID/g, a Muscle uptake of 2.7 ± 0.3 % ID/g, a Spleen uptake of 2.7 ± 0.5 % ID/g and a Stomach uptake of 2.5 ± 0.3 % ID/g.

In series [1] (2 min post-injection), `[18F]CCCOc1ccc(-c2cc3ccccc3s2)cc1` [2-(4′-O-(3′-[^18F]Fluoropropyl)hydroxyphenyl)benzothiophene] came in with a Blood uptake of 3.3 ± 0.5 % ID/g, a Bone uptake of 2.2 ± 0.2 % ID/g, a Brain uptake of 3.3 ± 0.2 % ID/g and a Fat uptake of 0.7 ± 0.1 % ID/g. In series [1] (2 min post-injection), this molecule gave a Heart uptake of 11.9 ± 0.6 % ID/g, an Intestine uptake of 2.4 ± 0.2 % ID/g, a Kidney uptake of 13.5 ± 1.2 % ID/g and a Liver uptake of 17.0 ± 0.6 % ID/g. Besides, in series [1] (2 min post-injection), the Lung uptake is recorded as 10.2 ± 1.4 % ID/g, the Muscle uptake amounted to 3.0 ± 0.2 % ID/g, the Spleen uptake amounted to 4.1 ± 1.2 % ID/g and the Stomach uptake was 1.8 ± 0.5 % ID/g. In series [1] (30 min post-injection), the Blood uptake came out at 1.4 ± 0.1 % ID/g, the Bone uptake amounted to 10.7 ± 0.6 % ID/g, the Brain uptake amounted to 4.0 ± 0.4 % ID/g and the Fat uptake came to 1.9 ± 0.4 % ID/g. In series [1] (30 min post-injection), the Heart uptake is listed as 1.8 ± 0.3 % ID/g, the Intestine uptake is listed as 5.5 ± 0.4 % ID/g, the Kidney uptake was 4.4 ± 0.4 % ID/g and the Liver uptake worked out at 6.1 ± 0.6 % ID/g. Also, in series [1] (30 min post-injection), the Lung uptake turned out to be 2.2 ± 0.6 % ID/g, the Muscle uptake came to 1.6 ± 0.1 % ID/g, the Spleen uptake was found to be 1.5 ± 0.2 % ID/g and the Stomach uptake was determined as 1.0 ± 0.4 % ID/g.

Take `[18F]Cc1ccc(-c2nc3ccccc3s2)cc1` [2-(4′-[^18F]fluoromethyl)phenyl-1,3-benzothiazole]: the “Bone uptake (in words; in vivo defluorination)” value in series [1] (tail vein) is reported as “High bone uptake”. The Brain uptake in series [1] (tail vein, "at min" post-injection (time figure missing)) was determined as 5.62±0.28 % ID/g. Besides, the “Brain uptake ratio to 30 min” value in series [1] (tail vein, early brain uptake / 30 min) stood at 3.75±0.97.

On to `FCc1ccc(-c2nc3ccccc3o2)cc1` [Benzoxaxole, 2-(4′-fluoromethyl)phenyl-1,3-benzoxazole], for which the inhibition constant Ki (as a rule, a dissociation constant, usually derived from enzyme kinetics or from competition with a known ligand) on Aβ1-40 aggregates came to 75.7 ± 43.2 nM; at Aβ1-42 aggregates, 59.9 ± 5.03 nM.
